Where two headings read alike, the source gives them in different places.
What was measured:
[1] = test system: human liver cancer QGY7703; experiment: Human liver cancer QGY7703 transplanted tumor in nude mice; type: in vivo, BALB/C nude mice; design: key to RTV (d 18): RTV = Vt/Vo, tumor volume relative to volume at grouping (d1); conditions: for inhibition in vivo at 100 mg/kg: Mus musculus, read-out: Tumor inhibitory rate %
Description: A human liver cancer QGY7703 model transplanted into nude mice was used in the experiment to investigate the anti-tumor effect of test compounds. The mice were intravenously injected at a dosage of 100 mg/kg for 14 days, and the tumor inhibition rate against human liver cancer QGY7703 was measured.
Preparation: The compound was prepared as the injection at the desired concentration with sterile normal saline, prior to administration.
Animal strain: BALB/C nude mice (SPF grade), weight: 19-21 g, gender: male. Number of animals in each treatment group: 8; number of animals in the control group: >12.
The tumor blocks of human liver cancer QGY7703 with good growth were cut into uniform small pieces of 3 mm under sterile conditions, and then subcutaneously inoculated into the right armpit of each mouse with a cannula. These mice were divided into 9 groups, 8 mice for each treatment group, while more than 12 mice were included in the control group.
14 days after inoculation, the average volume of the tumor block was about 100 mm^3. The animals were regrouped based on the size of the tumor, and the animals with tumors that were too large and too small were sifted out. For each group, the average volume of tumors was basically the same, and then the mice were initially treated with test compounds. The mice in the treatment groups were intravenously injected once a day for 14 days, at a dosage of 0.1 mL/20 g body weight; the mice in the control group were given the same volume of sterile normal saline. From the 14th day of inoculation, the long diameter a (mm) of the tumor, together with the perpendicular short diameter b (mm), was measured using a digital electronic caliper, twice a week. The calculation formula of tumor volume is: TV=ab^2/2, and the formula for calculating the relative tumor volume is RTV=Vt/Vo, wherein Vo denotes the tumor volume measured when the mice were divided into groups (i.e. d1), and Vt is the tumor volume from each measurement.
The result determination is based on the following formula: […]

[2] = test system: ocular surface neovascularization; experiment: Neovascularization of ocular surface in rats (NaOH cornea model); type: in vivo, SD rats; conditions: 50 μL/eye, 3 times/day, 10 days
Description: Four SD rats, regardless of gender, were subjected to single eye modeling, with a total of four eye models. One eye was used as a blank control (untreated group), one eye was used as a model control, one eye was used as treatment group 1, and one eye was used as treatment group 2.
The rats were anesthetized with pentobarbital sodium (25-30 mg/(kg, intraperitoneal injection), and two drops of oxybuprocaine hydrochloride eye drops were administrated to both eyes for ocular surface anesthesia. 30 μL of NaOH solution (1 mol/L) was placed with a pipette on a dry filter paper with a diameter of approximate 3 mm for 10 seconds. The moistened circular filter paper was gently applied to the center of the cornea (covering the corneoscleral margin) of the model eye, and a tight fit was kept for suitable time. The filter paper was removed, and then physiological saline was used to wash the eye, which was rinsed with a needle for 1 minute. After operation, ofloxacin eye ointment was applied to prevent infection (3 times/day, for 5 days).
On the 5th day (D5), neovascularization began to appear, and D5 was the first day of administrating the test compound (d1). Three eye drops were administered daily for 10 consecutive days (d10). […] After completion of the experiment, the rats were euthanized.
Blank control group (untreated group): no any treatment, no modeling, no administration. […]

B16 mouse melanoma = experiment: Lung metastasis model of B16 mouse melanoma; type: in vivo, C57BL/6 mice
Description: Under sterile conditions, […] mouse melanoma cells in logarithmic growth period were cultured, and then prepared as 2.8×10^5/mL of cell suspension, which was inoculated into the tail vein of C57BL/6 mice at 0.2 mL/mouse. Compound 6 was administered to the mice on the next day. Three weeks later, each animal was sacrificed, and the lungs of mice in each group were dissected. The number of metastatic colonies in the lungs of mice was detected and counted, and the average number of tumor colonies in each group was used to calculate the tumor inhibitory rate according to the formula: Tumor inhibitory rate %=[(The average number of colonies in the control group−the average number of colonies in the treatment group)/The average number of colonies in the control group]×100%, The results are shown in Table 16.

human lung cancer A549 = experiment: Compound 8 combined with carboplatin, human lung cancer A549 xenograft in nude mice; type: in vivo; conditions: ip: carboplatin 10 mg/kg, compound 8 200 mg/kg, combination 10 + 200
Text: Experimental method: The model of human lung cancer A549 transplant tumor in nude mice was established by subcutaneously inoculating human lung cancer A549 cell lines into the armpits of nude mice. Cells were inoculated in an amount of 1×10^6, and after formation of the transplanted tumors by inoculation, the cells were passed 3 generations in nude mice before use. The vigorous growth of tumor tissue was cut into approximate 1.5 mm^3, and homogenized under sterile conditions, to prepare 1×10^7/mL of cell suspension. 0.1 mL of cell suspension was subcutaneously inoculated into the right armpit of nude mice. For transplanted tumors in nude mice, the diameter was measured with vernier caliper. After the tumor grew to 100 mm^3, the animals were randomly divided into groups, with 6 mice in each group. Using the method of measuring tumor diameter, the anti-tumor effect of test compound was dynamically Observed. Compound 8 was administered at 200 mg/kg by intraperitoneal injection, once every other day, for three weeks; carboplatin was administered at 10 mg/kg by intraperitoneal injection, once every other day, for three weeks. The measurement frequency of tumor diameter was once every three days. The dosage by volume was 0.1 mL/20 g. The mice in the negative control group were given an equal amount of physiological saline by intravenous injection. The effect of combined medicaments was evaluated based on the Q value calculated by Jin's formula: […]
Ea+b represents the tumor inhibitory rate of the combined medicaments, while Ea and Eb represent the tumor inhibitory rates of medicament A and medicament B, respectively. For example, the Q value of 0.85-1.15 means additive action (+), while the Q value of >1.15 means synergistic action (++).

[3] = QGY-7703, QGY7703, 100 mg/kg iv × 14

COc1cc(/C=C(/C(=O)O)c2cc(OC)c(OC)c(OC)c2)cc(OC)c1 [Compound 3, (E)-3-(3,5-dimethoxyphenyl)-2-(3,4,5-trimethoxyphenyl)acrylic acid]
inhibition in vivo at 100 mg/kg ([1]; QGY-7703, iv): 63.7% | RTV (d 18) ([1]; QGY7703, 100 mg/kg iv × 14): 4.67 ± 0.63

COc1ccc(/C=C(/C(=O)O)c2cc(OC)c(OC)c(OC)c2)cc1F [Compound 4, (E)-3-(3-fluoro-4-methoxyphenyl)-2-(3,4,5-trimethoxyphenyl)acrylic acid]
inhibition in vivo at 100 mg/kg ([1]; QGY-7703, iv): 60.3% | RTV (d 18) ([1]; QGY7703, 100 mg/kg iv × 14): 5.11 ± 0.76

COc1ccc(/C=C(/C(=O)O)c2cc(OC)c(OC)c(OC)c2)cc1O [Compound 6, (E)-3-(3-hydroxy-4-methoxyphenyl)-2-(3,4,5-trimethoxyphenyl)acrylic acid]
Vascularization area ([2]; high-dose group, eye drops 25 mg/mL): significantly decreased | Neovascularization of the ocular surface ([2]; treatment groups, eye drops 10 or 25 mg/mL, vs model group): reduced compared to the model group | Animal weight (g) End (B16 mouse melanoma; 40 mg/kg iv × 10qod): 20.2/25.4 g | Metastasis inhibitory rate % (B16 mouse melanoma; 40 mg/kg iv × 10qod): 24.11% | Number of lung tumor colonies χ ± SD (B16 mouse melanoma; 40 mg/kg iv × 10qod): 40.1 ± 9.0 | Animal weight (g) End (B16 mouse melanoma; 60 mg/kg iv × 10qod): 20.1/25.7 g | Metastasis inhibitory rate % (B16 mouse melanoma; 60 mg/kg iv × 10qod): 29.03% | Number of lung tumor colonies χ ± SD (B16 mouse melanoma; 60 mg/kg iv × 10qod): 37.5 ± 11.7 | Animal weight (g) End (B16 mouse melanoma; 80 mg/kg iv × 10qod): 19.9/25.7 g | Metastasis inhibitory rate % (B16 mouse melanoma; 80 mg/kg iv × 10qod): 35.84% | Number of lung tumor colonies χ ± SD (B16 mouse melanoma; 80 mg/kg iv × 10qod): 33.9 ± 10.8 | Animal weight (g) End (B16 mouse melanoma; 120 mg/kg iv × 10qod): 20.2/25.6 g | Metastasis inhibitory rate % (B16 mouse melanoma; 120 mg/kg iv × 10qod): 34.14% | Number of lung tumor colonies χ ± SD (B16 mouse melanoma; 120 mg/kg iv × 10qod): 34.8 ± 13.4 | Inhibition of metastasis of B16 mouse melanoma, in words (B16 mouse melanoma; 40-120 mg/kg iv × 10qod): inhibit the metastasis of B16 mouse melanoma in a dose-dependent manner | inhibition in vivo at 100 mg/kg [1, 3]: 71.6% | RTV (d 18) ([1]; QGY7703, 100 mg/kg iv × 14): 3.65 ± 0.47 | Tumor inhibitory rate % ([1]; QGY7703, 100 mg/kg iv × 14): best inhibitory effect on liver cancer

COc1cc(/C(=C\c2cc(O)c(OC)c(F)c2)C(=O)O)cc(OC)c1OC [Compound 8, (E)-3-(5-fluoro-3-hydroxy-4-methoxyphenyl)-2-(3,4,5-trimethoxyphenyl)acrylic acid]
RTV (d 21) (human lung cancer A549): 4.85 ± 1.37 | Tumor inhibitory rate % (human lung cancer A549): 62.32%

COc1ccc(/C=C(/C(=O)O)c2cc(OC)c(OC)c(OC)c2)c(F)c1O [Compound 9, (E)-3-(2-fluoro-3-hydroxy-4-methoxyphenyl)-2-(3,4,5-trimethoxyphenyl)acrylic acid]
inhibition in vivo at 100 mg/kg [1, 3]: 63.7% | RTV (d 18) ([1]; QGY7703, 100 mg/kg iv × 14): 4.67 ± 0.58

COc1cc(/C=C(/C(=O)[O-])c2cc(OC)c(OC)c(OC)c2)cc(OC)c1F.[K+] [Compound 10]
inhibition in vivo at 100 mg/kg ([1]; QGY-7703, iv): 61.3% | RTV (d 18) ([1]; QGY7703, 100 mg/kg iv × 14): 4.98 ± 0.72

From US20240130988A1, “Use of stilbene compounds in the preparation of anti-tumor drugs” (Guangzhou AnHao Pharmaceutical Technology CO., LTD., priority 2022, published 2024)
